Measured values taken from patent US11040976B2, “Substrate selective inhibitors of insulin-degrading enzyme (IDE) and uses thereof” (President and Fellows of Harvard College, priority 2015, dated 2021).

biological target: T1, recombinant human IDE42-1019 (Homo sapiens, UniProt P14735); assay: Protease assay with fluorogenic peptide substrate Mca-[…](Dnp)-OH; assay type: biochemical; settings: fluorogenic peptide Mca-RPPGFSAFK(Dnp)-OH; apparent IC50 for compounds with submaximal inhibition; read-out: IC50 (μM) Proteolysis
T1 construct: recombinant human IDE42-1019 (R&D Systems); purchased R&D Systems
T1 sequence (P14735 42-1019): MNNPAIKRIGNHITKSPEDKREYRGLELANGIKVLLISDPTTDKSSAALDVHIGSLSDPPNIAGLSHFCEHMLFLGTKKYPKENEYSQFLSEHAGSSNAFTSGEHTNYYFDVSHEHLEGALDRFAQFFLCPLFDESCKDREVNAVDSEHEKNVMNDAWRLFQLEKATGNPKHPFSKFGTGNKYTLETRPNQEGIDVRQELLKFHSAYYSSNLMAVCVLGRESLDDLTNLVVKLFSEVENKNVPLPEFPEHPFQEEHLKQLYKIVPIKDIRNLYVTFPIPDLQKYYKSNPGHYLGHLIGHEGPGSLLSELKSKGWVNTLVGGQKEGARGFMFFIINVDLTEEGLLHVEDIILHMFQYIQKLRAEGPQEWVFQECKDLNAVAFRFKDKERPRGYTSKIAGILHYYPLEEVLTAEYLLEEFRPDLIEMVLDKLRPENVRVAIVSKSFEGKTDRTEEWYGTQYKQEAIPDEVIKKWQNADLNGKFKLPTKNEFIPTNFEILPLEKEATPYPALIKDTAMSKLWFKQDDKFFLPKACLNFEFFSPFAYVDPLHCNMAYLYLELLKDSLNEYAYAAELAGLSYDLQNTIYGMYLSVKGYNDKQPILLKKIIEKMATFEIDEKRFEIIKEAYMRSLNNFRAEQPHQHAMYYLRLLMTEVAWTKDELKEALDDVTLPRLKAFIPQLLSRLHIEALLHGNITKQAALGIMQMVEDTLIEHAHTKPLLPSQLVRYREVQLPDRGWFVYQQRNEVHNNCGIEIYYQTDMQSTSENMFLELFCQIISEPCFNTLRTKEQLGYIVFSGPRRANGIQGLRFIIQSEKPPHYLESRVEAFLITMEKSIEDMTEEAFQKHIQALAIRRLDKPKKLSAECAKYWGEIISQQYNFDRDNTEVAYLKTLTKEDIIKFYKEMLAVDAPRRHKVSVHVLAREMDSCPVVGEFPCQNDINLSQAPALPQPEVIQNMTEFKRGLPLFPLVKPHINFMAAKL
Experimental: The proteases IDE42-1019, recombinant human IDE42-1019 (R&D Systems), neprilysin (R&D), and angiotensin-converting enzyme (R&D) were assayed using the fluorophore/quencher-tagged peptide substrate Mca-[…](Dnp)-OH (SEQ ID NO: 24) (R&D) according to the manufacturer's instructions and using the recommended buffers (fluorophore Mca=(7-methoxycourmarin-4-yl)acetyl and quencher Dnp=2,4-dinitrophenyl). For IDE the recommended buffer is 50 mM Tris pH 7.5, 1 M NaCl. The enzyme mixtures (48 μL) were transferred to a 96-well plate and combined with 2 μL of inhibitor in DMSO solutions, in 3-fold dilution series. The mixtures were allowed to equilibrate for 10 minutes and the enzymatic reaction was started by addition of substrate peptide in assay buffer (50 μL), mixed, and monitored on a fluorescence plate reader (excitation at 320 nm, emission at 405 nm). Similarly, thimet oligopeptidase (R&D) and neurolysin (R&D) were assayed using substrate Mca-PLGPK(Dnp)-OH (SEQ ID NO: 25) (R&D) according to the manufacturer's instructions and using the recommended buffers. Matrix metalloproteinase-1 (R&D) was activated and assayed according to the manufacturer's instructions with substrate Mca-KPLGL-Dpa-AR-NH2 (SEQ ID NO: 20) (R&D) (quencher DPA=N-3-(2,4,dinitrophenyl)-L-2,3-diaminopropionyl). All assay data points were obtained in duplicate.

SMILES | IC50
Cc1cccc(-c2ccc(C3CCN(S(=O)(=O)c4ccc5c(c4)OCCO5)CC3)cc2)c1C [A01] | > 30 µM
Cc1cccc(-c2ccc(C3CCN(S(=O)(=O)c4ccc5c(c4)OCO5)CC3)cc2)c1C [A02] | 12 µM
Cc1cccc(-c2ccc(C3CCN(S(=O)(=O)c4cc5ccccc5o4)CC3)cc2)c1C [A03] | > 100 µM
Cc1cccc(-c2ccc(C3CCN(S(=O)(=O)c4ccccc4Oc4ccccc4)CC3)cc2)c1C [A04] | 12 µM
Cc1cccc(-c2ccc(C3CCN(S(=O)(=O)c4cccc(Oc5ccc(F)cc5)c4)CC3)cc2)c1C [A05] | 9 µM
Cc1cccc(-c2ccc(C3CCN(S(=O)(=O)c4cccc(C(=O)N(C)C)c4)CC3)cc2)c1C [A06] | 1 µM
Cc1cccc(-c2ccc(C3CCN(S(=O)(=O)c4ccc(F)c5ncccc45)CC3)cc2)c1C [A07] | 3 µM
Cc1cccc(-c2ccc(C3CCN(S(=O)(=O)c4ccc5c(c4)Cc4ccccc4-5)CC3)cc2)c1C [A08] | 25 µM
Cc1cccc(-c2ccc(C3CCN(S(=O)(=O)c4ccc5c(c4)CCC(=O)N5)CC3)cc2)c1C [A10] | 33 µM
Cc1cccc(-c2ccc(C3CCN(S(=O)(=O)c4cccc5c(N(C)C)cccc45)CC3)cc2)c1C [A11] | 10 µM
Cc1cc2c(cc1S(=O)(=O)N1CCC(c3ccc(-c4cccc(C)c4C)cc3)CC1)OCC(=O)N2 [A13] | 10 µM
Cc1cccc(-c2ccc(C3CCN(S(=O)(=O)c4ccc5c(ccn5C)c4)CC3)cc2)c1C [A14] | 10 µM
Cc1cccc(-c2ccc(C3CCN(S(=O)(=O)c4ccc5[nH]c(=O)[nH]c5c4)CC3)cc2)c1C [A15] | 4 µM
Cc1cccc(-c2ccc(C3CCN(S(=O)(=O)c4cccnc4)CC3)cc2)c1C [A16] | 12 µM
Cc1cccc(-c2ccc(C3CCN(S(=O)(=O)CCc4ccncc4)CC3)cc2)c1C [A17] | 5 µM
Cc1cccc(-c2ccc(C3CCN(S(=O)(=O)c4cc(C(F)(F)F)cc(C(F)(F)F)c4)CC3)cc2)c1C [A18] | 12 µM
Cc1cccc(-c2ccc(C3CCN(S(=O)(=O)N4CC(C)OC(C)C4)CC3)cc2)c1C (centres unmarked) [A19] | 4 µM
COc1ccc(C(=O)N2CCC(c3ccc(-c4cccc(C)c4C)cc3)CC2)c(OC)c1 [A21] | 1 µM
Cc1cccc(-c2ccc(C3CCN(C(=O)c4cccc(OCc5ccccc5)c4)CC3)cc2)c1C [A22] | 1 µM
Cc1cccc(-c2ccc(C3CCN(C(=O)c4ccccc4Oc4ccccc4)CC3)cc2)c1C [A23] | 10 µM
Cc1cccc(-c2ccc(C3CCN(C(=O)c4ccc5c(c4)OCCN5C)CC3)cc2)c1C [A25] | 0.9 µM
Cc1cccc(-c2ccc(C3CCN(C(=O)c4ccc5occc5c4)CC3)cc2)c1C [A26] | 6 µM
Cc1cccc(-c2ccc(C3CCN(C(=O)C4c5ccccc5-c5ccccc54)CC3)cc2)c1C [A27] | 12 µM
Cc1cccc(-c2ccc(C3CCN(C(=O)c4ccc5ccccc5n4)CC3)cc2)c1C [A28] | 1 µM

SMILES | IC50
Cc1cccc(-c2ccc(C3CCN(C(=O)Oc4cccc5ccccc45)CC3)cc2)c1C [A29] | > 50 µM
Cc1cccc(-c2ccc(C3CCN(C(=O)Oc4ccc5ccccc5c4)CC3)cc2)c1C [A30] | 12 µM
Cc1cccc(-c2ccc(C3CCN(Cc4ccc(Oc5ccccc5)cc4)CC3)cc2)c1C [A31] | 12 µM
Cc1cccc(-c2ccc(C3CCN(Cc4cccc(Oc5ccccc5)c4)CC3)cc2)c1C [A32] | 12 µM
Cc1cccc(-c2ccc(C3CCN(Cc4ccccc4Oc4ccccc4)CC3)cc2)c1C [A33] | 7 µM
Cc1cccc(-c2ccc(C3CCN(Cc4ccc(OCc5ccccc5)cc4)CC3)cc2)c1C [A34] | > 50 µM
Cc1cccc(-c2ccc(C3CCN(Cc4ccc(F)c5ccccc45)CC3)cc2)c1C [A35] | 12 µM
Cc1cccc(-c2ccc(C3CCN(Cc4ccc5ccccc5n4)CC3)cc2)c1C [A39] | 12 µM
Cc1cccc(-c2ccc(C3CCN(C(=O)c4ccc5c(c4)C4(OC5=O)c5ccc(O)cc5Oc5cc(O)ccc54)CC3)cc2)c1C [A40] | 12 µM
Cc1cccc(-c2ccc([C@@H]3[C@@H](CO)N4C/C=C\CN(S(=O)(=O)c5ccccc5C)C[C@@H]34)cc2)c1 [B1] | 0.2 µM
Cc1cccc(-c2ccc([C@@H]3[C@@H](CO)N4CCCCN(S(=O)(=O)c5ccccc5C)C[C@@H]34)cc2)c1 [B2] | 0.4 µM
Cc1ccc(-c2ccc([C@@H]3[C@@H](CO)N4CCCCN(S(=O)(=O)c5ccccc5C)C[C@@H]34)cc2)cc1C [B3] | 0.2 µM
Cc1ccccc1S(=O)(=O)N1CCCCN2[C@H](CO)[C@@H](c3ccc(-c4cccc(C(F)(F)F)c4)cc3)[C@@H]2C1 [B5] | 7.5 µM
Cc1ccccc1S(=O)(=O)N1CCCCN2[C@H](CO)[C@@H](c3ccc(-c4ccccc4)cc3)[C@@H]2C1 [B6] | 1 µM
Cc1ccccc1S(=O)(=O)N1CCCCN2[C@H](CO)[C@@H](c3ccc(-c4cccc(O)c4)cc3)[C@@H]2C1 [B7] | 7.5 µM
Cc1cccc(-c2ccc([C@@H]3[C@@H](CO)N4CCCCN(S(=O)(=O)c5ccccc5C)C[C@@H]34)cc2)c1 [BRD-297] | 0.25 µM
O=C(c1ccncc1)N1CC2NC(C1)C2c1ccc(/C=C/c2ccccc2)cc1 (centres unmarked) [C10] | 10 µM
CCC(=O)N1[C@H](CO)[C@H](c2ccc(-c3ccccc3OC)cc2)[C@@H]1CNC(C)=O [D3] | 7 µM
CCC(=O)N1[C@H](CO)[C@H](c2ccc(-c3ccccc3OC)cc2)[C@H]1CNC(C)=O [D4] | > 20 µM
COc1ccccc1-c1ccc([C@H]2[C@@H](CO)N[C@@H]2CNC(=O)C2CCCC2)cc1 [D5] | 7.5 µM
COc1ccccc1-c1ccc([C@@H]2[C@@H](C#N)N(C(=O)CN(C)C)[C@H]2CO)cc1 [D6] | 5 µM
Cc1cccc(-c2ccc([C@H]3C4CNC/C=C\CN4[C@@H]3CO)cc2)c1C (some centres unmarked) [Int211] | > 10 µM
Cc1ccccc1S(=O)(=O)N1CCN(c2ccc(-c3cccc(C)c3C)cc2)CC1 [J1] | 1 µM
Cc1ccccc1S(=O)(=O)N1CCC(O)(c2ccc(-c3cccc(C)c3C)cc2)CC1 [J2] | 2.5 µM

same assay, conditions: fluorogenic peptide Mca-RPPGFSAFK(Dnp)-OH; plateau at high inhibitor concentration

SMILES | Imax (%) Proteolysis (inhibition maximum)
Cc1cccc(-c2ccc([C@@H]3[C@@H](CO)N4CCCCN(S(=O)(=O)c5ccccc5C)C[C@@H]34)cc2)c1 [B2] | 65%
Cc1ccccc1-c1ccc([C@@H]2[C@@H](CO)N3CCCCN(S(=O)(=O)c4ccccc4C)C[C@@H]23)cc1 [B13] | 65%

same assay, conditions: fluorogenic peptide Mca-RPPGFSAFK(Dnp)-OH; plateau at high inhibitor concentration; read-out: Imax (%) Proteolysis (inhibition maximum)

SMILES | Emax
Cc1ccc(-c2ccc([C@@H]3[C@@H](CO)N4CCCCN(S(=O)(=O)c5ccccc5C)C[C@@H]34)cc2)cc1C [B3] | 72%
Cc1ccccc1S(=O)(=O)N1CCCCN2[C@H](CO)[C@@H](c3ccc(-c4ccc5c(c4)OCO5)cc3)[C@@H]2C1 [B4] | 100%
Cc1ccccc1S(=O)(=O)N1CCCCN2[C@H](CO)[C@@H](c3ccc(-c4ccccc4)cc3)[C@@H]2C1 [B6] | 65%
Cc1ccccc1S(=O)(=O)N1CCCCN2[C@H](CO)[C@@H](c3ccc(-c4cccc(O)c4)cc3)[C@@H]2C1 [B7] | 100%
Cc1cc(C)cc(-c2ccc([C@@H]3[C@@H](CO)N4CCCCN(S(=O)(=O)c5ccccc5C)C[C@@H]34)cc2)c1 [B9] | 72%
Cc1ccccc1S(=O)(=O)N1CCCCN2[C@H](CO)[C@@H](c3ccc(-c4cccc(F)c4)cc3)[C@@H]2C1 [B10] | 65%
Cc1ccccc1-c1ccc([C@@H]2[C@@H](CO)N3CCCCN(S(=O)(=O)c4ccccc4C)C[C@@H]23)cc1 [B11] | 65%
Cc1ccc(C)c(-c2ccc([C@@H]3[C@@H](CO)N4CCCCN(S(=O)(=O)c5ccccc5C)C[C@@H]34)cc2)c1 [B12] | 65%
Cc1ccccc1S(=O)(=O)N1CCCCN2[C@H](CO)[C@@H](c3ccc(-c4cccc(F)c4F)cc3)[C@@H]2C1 [B14] | 90%
O=C(c1ccncc1)N1CC2NC(C1)C2c1ccc(/C=C/c2ccccc2)cc1 (centres unmarked) [C10] | 100%
Cc1cccc(-c2ccc([C@@H]3[C@H](CO)N4CCCCN(S(=O)(=O)c5ccccc5F)C[C@@H]34)cc2)c1 [Compound 807] | 30%
CCC(=O)N1[C@H](CO)[C@H](c2ccc(-c3ccccc3OC)cc2)[C@@H]1CNC(C)=O [D3] | 50%
COc1ccccc1-c1ccc([C@H]2[C@@H](CO)N[C@@H]2CNC(=O)C2CCCC2)cc1 [D5] | 60%
COc1ccccc1-c1ccc([C@@H]2[C@@H](C#N)N(C(=O)CN(C)C)[C@H]2CO)cc1 [D6] | 70%

same assay, conditions: fluorogenic peptide, FIG. 12; read-out: IC50 for proteolysis

SMILES | IC50
Cc1ccccc1S(=O)(=O)N1CCCCN2[C@H](CO)[C@@H](c3ccc(-c4cccc(C)c4C)cc3)[C@@H]2C1 [B8] | 0.002 µM
